Each block holds one compound with its values, some of them ahead of it.
How the values were obtained:
VHL E3 ligase [1] = target: T1, VHL E3 ligase (UniProt P06709+P40337); assay: Ubiquitin biotinylation MS profiling of BET/PTK2 degraders in VHL-BirA cells; type: cell-based, human; conditions: A3-HA-Ub, 1 μM, 1 hour, FIG. 10
T1 construct: expressed in transfected cells
Procedure: (§1) Enrichment of biotinylated species by streptavidin-coated beads, protein digestion, and protein identification and quantification by mass spectrometry were performed exactly as described in Examples 3 and 4. Triplicate samples allowed for statistical analysis of differentially enriched proteins, represented by log 2-fold-change (FC) between the PROTAC®-treated group and the DMSO-treated group on the x-axis, and significance (p-value estimated by limma) on the y-axis in the figures.

PTK2 = PTK2 (Homo sapiens, UniProt Q05397); conditions: cited from earlier work
CRBN E3 ligase [2] = assay: Ubiquitin biotinylation MS profiling of BET/PTK2 degraders in CRBN-BirA cells; type: cell-based, human; conditions: A3-HA-Ub, 1 μM, 1 hour, FIG. 10
Procedure: as §1

CRBN E3 ligase [3] = assay: Ubiquitin biotinylation MS profiling of multikinase PROTACs in HEK293T CRBN-/- CRBN-BirA cells; type: cell-based, human; conditions: A3-HA-Ub; PROTAC 1 μM, 45 minutes after carfilzomib; FIGS. 13A-13D
Excerpt: In this example, PROTAC® (proteolysis-targeting chimera) molecules that target kinases were created by linking certain kinase degraders with IMiDs analogs. (FIG. 12). PROTAC®s recruit a target protein to be in proximity to an E3 ubiquitin ligase to trigger protein degradation. The ubiquitinated targets of four CRBN-recruiting multi-kinase PROTAC®s were generated to contain the following multikinase degraders: SK-3-91, DB0646, SB1-G-187 and WH-10417-099. These four degraders can collectively induce degradation of a large number of distinct kinases (>125 distinct kinases). FIGS. 13A-13D show the results of a mass spectrometry experiment in which protein substrates susceptible to induced ubiquitination by the abovementioned four multikinase degraders were identified, respectively. These experiments were performed in HEK293T^CRBN−/− cells lentivirally engineered to express CRBN-BirA and transiently expressing A3-HA-Ub. While cultured in biotin-free medium, the cells were pre-treated with carfilzomib (carf; 0.4 μM) for 1 hour, and then were either treated or untreated with the kinase-targeting PROTAC®s (1 μM) for another 45 minutes. […] Enrichment of biotinylated species by streptavidin-coated beads, protein digestion, and protein identification and quantification by mass spectrometry were performed exactly as described in Example 3 and 4. Triplicate samples allowed for statistical analysis of differentially enriched proteins, represented by log 2-fold-change (FC) between the PROTAC®-treated group and the DMSO-treated group on the x-axis, and significance (p-value estimated by limma) on the y-axis in the figures. FIGS. 13A-13D present the induced ubiquitinated substrates for SK-3-91, DB0646, SB1-G-187 and WH-10417-099, respectively, shown and labeled in the upper right quadrant of the plot.

[4] = target: T2, DCAF15 E3 ubiquitin ligase (UniProt P06709+Q14498+Q66K64); assay: Ubiquitin biotinylation MS profiling of molecular glue in HEK293T DCAF15-BirA cells; type: cell-based, human; conditions: A3-HA-Ub, 10 μM, 1 hour, FIG. 11
T2 construct: expressed in transfected cells
Procedure: The protocol used in this experiment is the same as that described in Example 6 above, except that the system was evaluated in a HEK293T cell line lentivirally engineered to express DCAF15-BirA and transiently expressing A3-HA-Ub. While cultured in biotin-free medium, the cells were pre-treated with carfilzomib (carf; 0.4 μM) for 1 hour, and then were either treated or untreated with E7820 (10 μM) for another hour. […] Enrichment of biotinylated species by streptavidin-coated beads, protein digestion, and protein identification and quantification by mass spectrometry were performed exactly as described in Examples 3 and 4. Triplicate samples allowed for statistical analysis of differentially enriched proteins, represented by log 2-fold-change (FC) between the E7820-treated group and the DMSO-treated group on the x-axis, and significance (p-value estimated by limma) on the y-axis in the figures. […] Consistent with the expected action of the E7820 glue in the system, the induced ubiquitinated protein RBM39/CAPERα was detected as the target of the E7820 sulfonamide, based on binding activity or protein degradation.

VHL E3 ligase [5] = target: T1, VHL E3 ligase; assay: Ubiquitin biotinylation MS with VHL inhibitor in A375 cells expressing VHL-BirA; type: cell-based, human; conditions: MLN4924 pre-treatment and washout, VH298 30 minutes, FIG. 18
Procedure: Experiments were conducted using the methods and systems described herein in conjunction with an inhibitor of an E3 ligase utilized in the experiment. […] The experiments were performed in A375 cells that transiently expressed A3-HA-Ub and VHL-BirA. While cultured in biotin-free medium, the cells were pre-treated with MLN4924 (1 μM) for 2 hours. Thereafter, MLN4924 was washed out of the cell culture with one PBS wash and was replaced with biotin-free medium.
Next, the cells were lysed and kept on ice to terminate the reaction. Enrichment of biotinylated species by streptavidin-coated beads, protein digestion, and protein identification and quantification by mass spectrometry were performed exactly as described in Examples 3 and 4. The samples were analyzed in triplicate to allow for statistical analysis of differentially enriched proteins, represented by log 2-fold-change between the VH298-treated E3 ligase group and the wild-type E3 ligase group on the y-axis, and significance (p-value estimated by limma) on the x-axis in the figures. […] A decrease in biotinylation owing to the inhibitor treatment was observed. Consistent with the expected actions of VHL, HIF1A was identified as a substrate.

CRBN E3 ligase [6] = assay: Ubiquitin biotinylation MS profiling of HDAC degrader in 293T CRBN-/- CRBN-BirA cells; type: cell-based, human; conditions: CRBN-BirA, A3-HA-Ub; 1 μM, 45 minutes; FIG. 14A
Procedure: as §1, with “The experiments involving CRBN E3 ligase were performed in HEK293T^CRBN−/− cells lentivirally engineered to express CRBN-BirA and transiently expressing A3-HA-Ub. The HDAC degrader XY-07-097 was used in the experiments using the CRBN E3 ligase. The experiments involving VHL E3 ligase were performed in HEK293T cells lentivirally engineered to express VHL-BirA and transiently expressing A3-HA-Ub. The HDAC degrader XY-07-187 was used in the experiments using the VHL E3 ligase. […] Enrichment” for “Enrichment”, “Example” for “Examples”
(§2) Desalted peptides were dried in a vacuum-centrifuged and reconstituted in 0.1% formic acid for LC-MS analysis. Data were collected using a TimsTOF Pro2 (Bruker Daltonics, Bremen, Germany) coupled to a nanoElute LC pump (Bruker Daltonics, Bremen, Germany) via a CaptiveSpray nano-electrospray source. […]

VHL E3 ligase [7] = target: T1, VHL E3 ligase; assay: Ubiquitin biotinylation MS profiling of HDAC degrader in 293T VHL-BirA cells; type: cell-based, human; conditions: A3-HA-Ub, 1 μM, 45 minutes, FIG. 14B
Procedure: as §1, with “The experiments involving CRBN E3 ligase were performed in HEK293T^CRBN−/− cells lentivirally engineered to express CRBN-BirA and transiently expressing A3-HA-Ub. The HDAC degrader XY-07-097 was used in the experiments using the CRBN E3 ligase. The experiments involving VHL E3 ligase were performed in HEK293T cells lentivirally engineered to express VHL-BirA and transiently expressing A3-HA-Ub. The HDAC degrader XY-07-187 was used in the experiments using the VHL E3 ligase. […] Enrichment” for “Enrichment”, “Example” for “Examples”
as §2

GSPT1 = GSPT1 degradation by Western blot in HEK293T cells and CRBN-/- derivatives; type: cell-based, human; conditions: carfilzomib 0.4 μM 1 hour before CC-885 1 μM
Procedure: However, instead of assessing transiently-expressed V5-tagged IKZF1, an endogenous neo-substrate of CRBN, namely, GSPT1, was assessed. […] Following incubation with the components and added agents, the cells were lysed, and streptavidin-coated beads were used to capture from the cell lysate biotinylated, ubiquitinated proteins, e.g., the endogenous GSPT1 substrate. The biotinylated proteins eluted from the beads were subjected to Western blot analyses.

BET bromodomains = conditions: degrader of BET bromodomains; cited from earlier work
V5-IKZF1 = target: T3, V5-IKZF1 (Homo sapiens, UniProt Q13422+Q96SW2); assay: Streptavidin pulldown and Western blot of biotinylated ubiquitinated V5-IKZF1 in 293T CRBN-/- CRBN-BirA cells; type: cell-based
T3 construct: expressed in transfected cells; host or cells: 293T CRBN-/- cells stably expressing CRBN-BirA; pRK5 vector, transient

BirA [8] = target: T4, BirA (Escherichia coli, UniProt P06709)
BirA [9] = target: T4, BirA; conditions: cited from earlier work

T1 sequence (P40337+P06709 fused): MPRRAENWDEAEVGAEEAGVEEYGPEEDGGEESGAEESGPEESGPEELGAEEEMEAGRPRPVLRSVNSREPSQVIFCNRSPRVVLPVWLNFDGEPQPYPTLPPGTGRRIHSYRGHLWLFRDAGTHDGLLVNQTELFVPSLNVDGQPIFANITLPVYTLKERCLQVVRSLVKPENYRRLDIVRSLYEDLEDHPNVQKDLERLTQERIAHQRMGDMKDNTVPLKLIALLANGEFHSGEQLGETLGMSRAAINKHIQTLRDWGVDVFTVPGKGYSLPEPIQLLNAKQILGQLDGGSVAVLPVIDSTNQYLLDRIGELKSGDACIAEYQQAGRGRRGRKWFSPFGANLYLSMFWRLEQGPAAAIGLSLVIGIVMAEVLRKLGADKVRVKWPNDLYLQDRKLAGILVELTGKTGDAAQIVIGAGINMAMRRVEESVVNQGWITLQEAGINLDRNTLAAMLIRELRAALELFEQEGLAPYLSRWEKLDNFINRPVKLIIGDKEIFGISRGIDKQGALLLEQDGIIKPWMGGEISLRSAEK
T1 sequence (Q15369 whole entry, further chain): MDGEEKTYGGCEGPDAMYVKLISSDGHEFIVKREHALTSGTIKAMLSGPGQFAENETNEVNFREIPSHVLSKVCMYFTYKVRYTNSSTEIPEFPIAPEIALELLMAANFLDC
T1 sequence (Q15370 whole entry, further chain): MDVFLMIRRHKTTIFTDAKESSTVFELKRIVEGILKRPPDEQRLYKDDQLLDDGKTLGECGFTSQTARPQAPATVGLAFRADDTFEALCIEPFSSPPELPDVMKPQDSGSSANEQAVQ
T4 sequence (P06709 whole entry): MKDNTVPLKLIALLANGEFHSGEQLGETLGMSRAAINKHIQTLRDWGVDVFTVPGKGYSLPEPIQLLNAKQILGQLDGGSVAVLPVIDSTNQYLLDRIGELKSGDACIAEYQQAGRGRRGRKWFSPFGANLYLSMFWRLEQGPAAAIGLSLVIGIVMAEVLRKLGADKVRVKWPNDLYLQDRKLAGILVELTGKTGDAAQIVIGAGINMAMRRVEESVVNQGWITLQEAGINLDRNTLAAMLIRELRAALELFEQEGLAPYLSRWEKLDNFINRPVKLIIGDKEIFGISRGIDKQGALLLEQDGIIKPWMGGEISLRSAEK
T3 sequence (Q13422 whole entry): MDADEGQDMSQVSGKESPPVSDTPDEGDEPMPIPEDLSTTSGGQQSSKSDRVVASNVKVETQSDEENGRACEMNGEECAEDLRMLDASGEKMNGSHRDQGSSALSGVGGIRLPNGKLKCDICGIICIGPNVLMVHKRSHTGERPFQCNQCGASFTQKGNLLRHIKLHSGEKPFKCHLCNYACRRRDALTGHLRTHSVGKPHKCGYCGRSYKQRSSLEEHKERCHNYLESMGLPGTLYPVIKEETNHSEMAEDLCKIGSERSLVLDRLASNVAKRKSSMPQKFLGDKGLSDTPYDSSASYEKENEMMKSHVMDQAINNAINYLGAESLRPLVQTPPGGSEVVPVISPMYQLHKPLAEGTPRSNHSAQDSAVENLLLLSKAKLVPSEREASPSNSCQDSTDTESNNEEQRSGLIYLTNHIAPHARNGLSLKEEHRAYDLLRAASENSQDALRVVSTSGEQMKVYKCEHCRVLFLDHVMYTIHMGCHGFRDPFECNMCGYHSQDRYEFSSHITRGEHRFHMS
T3 sequence (Q96SW2 whole entry): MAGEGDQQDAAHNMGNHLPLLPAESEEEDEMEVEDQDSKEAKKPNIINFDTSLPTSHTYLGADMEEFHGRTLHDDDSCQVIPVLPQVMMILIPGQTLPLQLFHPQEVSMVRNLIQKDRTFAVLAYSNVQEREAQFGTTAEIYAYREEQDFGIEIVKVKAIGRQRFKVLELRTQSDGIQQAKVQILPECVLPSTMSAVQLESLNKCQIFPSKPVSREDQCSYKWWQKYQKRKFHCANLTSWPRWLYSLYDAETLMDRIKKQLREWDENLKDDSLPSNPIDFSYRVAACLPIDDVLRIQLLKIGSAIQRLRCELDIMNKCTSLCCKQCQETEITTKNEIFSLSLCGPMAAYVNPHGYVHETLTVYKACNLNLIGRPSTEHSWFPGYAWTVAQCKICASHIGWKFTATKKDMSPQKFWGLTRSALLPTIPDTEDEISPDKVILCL
Chain of PTK2 (Q05397 whole entry): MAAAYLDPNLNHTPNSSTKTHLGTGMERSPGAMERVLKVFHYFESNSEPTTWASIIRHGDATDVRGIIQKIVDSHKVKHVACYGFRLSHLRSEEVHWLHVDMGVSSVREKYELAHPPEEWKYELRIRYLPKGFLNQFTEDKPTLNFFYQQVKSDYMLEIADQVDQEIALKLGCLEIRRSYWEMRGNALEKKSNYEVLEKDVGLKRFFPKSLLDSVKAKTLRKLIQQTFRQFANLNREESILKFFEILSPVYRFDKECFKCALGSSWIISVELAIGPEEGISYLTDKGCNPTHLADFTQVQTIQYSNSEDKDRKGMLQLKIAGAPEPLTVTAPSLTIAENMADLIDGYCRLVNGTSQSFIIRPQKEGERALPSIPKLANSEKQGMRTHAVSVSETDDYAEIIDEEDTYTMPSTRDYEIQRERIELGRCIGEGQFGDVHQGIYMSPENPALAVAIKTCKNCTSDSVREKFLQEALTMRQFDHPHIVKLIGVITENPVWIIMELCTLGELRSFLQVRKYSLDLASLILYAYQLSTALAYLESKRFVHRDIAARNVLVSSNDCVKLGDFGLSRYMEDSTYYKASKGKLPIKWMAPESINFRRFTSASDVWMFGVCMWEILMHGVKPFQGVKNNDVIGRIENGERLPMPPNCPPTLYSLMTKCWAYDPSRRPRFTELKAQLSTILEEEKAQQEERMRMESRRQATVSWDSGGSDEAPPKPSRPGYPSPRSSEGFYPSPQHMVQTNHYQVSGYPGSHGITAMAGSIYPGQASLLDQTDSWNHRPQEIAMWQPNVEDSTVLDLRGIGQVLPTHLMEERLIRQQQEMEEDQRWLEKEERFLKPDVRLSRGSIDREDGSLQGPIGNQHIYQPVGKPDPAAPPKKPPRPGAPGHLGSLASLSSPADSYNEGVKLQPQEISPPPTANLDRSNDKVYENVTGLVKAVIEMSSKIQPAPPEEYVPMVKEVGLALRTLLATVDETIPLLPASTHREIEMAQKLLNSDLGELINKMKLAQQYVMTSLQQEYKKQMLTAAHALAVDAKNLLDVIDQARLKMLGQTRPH

Compound: Cc1ncsc1-c1ccc([C@H](C)NC(=O)[C@@H]2C[C@@H](O)CN2C(=O)[C@@H](NC(=O)COCCCOCCNC(=O)C[C@@H]2N=C(c3ccc(Cl)cc3)c3c(sc(C)c3C)-n3c(C)nnc32)C(C)(C)C)cc1 [ARV-771]
Induced ubiquitinated substrates versus DMSO (VHL E3 ligase [1]): BRD2, BRD3, BRD4

Compound: COc1cc(C(=O)NCCOCCOCCOCC(=O)N[C@H](C(=O)N2C[C@H](O)C[C@H]2C(=O)NCc2ccc(-c3scnc3C)cc2)C(C)(C)C)ccc1Nc1ncc(C(F)(F)F)c(Oc2cccc3c2C(=O)CC3)n1 [BI-0319]
Induced ubiquitinated substrates versus DMSO (VHL E3 ligase [1]): PTK2

Compound: COc1cc(C(=O)NCCOCCOCCOCCC(=O)Nc2cccc3c2C(=O)N(C2CCC(=O)NC2=O)C3=O)ccc1Nc1ncc(C(F)(F)F)c(Oc2cccc3c2C(=O)CC3)n1 (centres unmarked) [BI-3663]
IC50 (PTK2): 18 nM | Induced ubiquitinated substrates versus DMSO (CRBN E3 ligase [2]): PTK2

Compound: Cc1ccc(NC(=O)c2cccc(C(F)(F)F)c2)cc1N1Cc2cnc(Nc3ccc(N4CCN(Cc5cn(CCCCCOc6cccc7c6C(=O)N(C6CCC(=O)NC6=O)C7=O)nn5)CC4)nc3)nc2N(C)C1=O (centres unmarked) [DB0646]
Induced ubiquitinated proteins versus DMSO (CRBN E3 ligase [3]): the majority of the induced ubiquitinated proteins detected were kinase targets

Compound: Cc1ccc(NS(=O)(=O)c2cccc(C#N)c2)c2[nH]cc(C#N)c12 [E7820]
Induced ubiquitinated substrate versus DMSO [4]: RBM39/CAPERα

Compound: Cc1ccc(C(=O)Nc2ccc(CN3CCN(CCCOCCOCCOCCNC(=O)COc4cccc5c4C(=O)N(C4CCC(=O)NC4=O)C5=O)CC3)c(C(F)(F)F)c2)cc1C#Cc1cnc2cccnn12 (centres unmarked) [SB1-G-187]
Induced ubiquitinated proteins versus DMSO (CRBN E3 ligase [3]): the majority of the induced ubiquitinated proteins detected were kinase targets

Compound: CC(C)S(=O)(=O)c1ccccc1Nc1nc(Nc2ccc(N3CCN(CCOCCNC(=O)CNc4cccc5c4C(=O)N(C4CCC(=O)NC4=O)C5=O)CC3)cc2)ncc1Cl (centres unmarked) [SK-3-91]
Induced ubiquitinated proteins versus DMSO (CRBN E3 ligase [3]): the majority of the induced ubiquitinated proteins detected were kinase targets

Compound: Cc1ncsc1-c1ccc(CNC(=O)[C@@H]2C[C@@H](O)CN2C(=O)[C@@H](NC(=O)C2(C#N)CC2)C(C)(C)C)cc1 [VH298]
VHL substrate revealed by decrease in biotinylation owing to the inhibitor treatment (VHL E3 ligase [5]): HIF1A

Compound: O=C(/C=C/c1ccc(CN(CCCCCNc2cccc3c2C(=O)N(C2CCC(=O)NC2=O)C3=O)CCc2c[nH]c3ccccc23)cc1)NO (centres unmarked) [XY-07-097]
Induced ubiquitinated HDAC substrates versus DMSO (CRBN E3 ligase [6]): HDAC2, HDAC6, and HDAC8

Compound: Cc1ncsc1-c1ccc(CNC(=O)[C@@H]2C[C@@H](O)CN2C(=O)C(NC(=O)C2(F)CC2)C(C)(C)C)c(OCCCCCN(CCc2c[nH]c3ccccc23)Cc2ccc(/C=C/C(=O)NO)cc2)c1 (some centres unmarked) [XY-07-187]
Induced ubiquitinated HDAC substrates versus DMSO (VHL E3 ligase [7]): HDAC1, HDAC2, HDAC6, and HDAC8

Compound: CC(C)C[C@H](NC(=O)[C@H](CCc1ccccc1)NC(=O)CN1CCOCC1)C(=O)N[C@@H](Cc1ccccc1)C(=O)N[C@@H](CC(C)C)C(=O)[C@@]1(C)CO1 [carfilzomib]
Rescue of CC-885-induced GSPT1 degradation (GSPT1): partially rescued

Compound: Cc1sc2c(c1C)C(c1ccc(Cl)cc1)=N[C@@H](CC(=O)NCCCCCCCCNC(=O)COc1cccc3c1C(=O)N(C1CCC(=O)NC1=O)C3=O)c1nnc(C)n1-2 (some centres unmarked) [dBET6]
IC50 (BET bromodomains): ~10 nM | Induced ubiquitinated substrates versus DMSO (CRBN E3 ligase [2]): BRD2, BRD3, BRD4

Mono- and poly-ubiquitinated V5-IKZF1 captured by streptavidin beads (V5-IKZF1): increased amount | Ubiquitinated V5-IKZF1 captured by streptavidin beads compared with DMSO (V5-IKZF1): approximately 3.9 fold
Compound: Nc1cccc2c1C(=O)N(C1CCC(=O)NC1=O)C2=O (centres unmarked) [pomalidomide]
Induced ubiquitination of IKZF1 by E3 ligase CRBN (V5-IKZF1): showed pomalidomide-induced ubiquitination of IKZF1

Compound: GLNDIFEAQKIE [A3-Tag]
Increase in Km relative to Avi-Tag (BirA [8]): ~14 fold | Km (BirA [9]): 345 µM

Compound: GLNDIFEAQKIEWHE [Avi-Tag]
Km (BirA [9]): 25 µM

From US20250084453A1, “SYSTEMS, COMPOSITIONS AND METHODS FOR IDENTIFYING E3 LIGASE SUBSTRATES BY UBIQUITIN BIOTINYLATION” (The Broad Institute, Inc., priority 2022, published 2025)
